From PubChem BioAssay (NCI)
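Results reflect a 48-hour exposure of cells in 96-well plates to compound at five concentrations. At the GI50, growth is halved. At the TGI there is no net growth.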

Columns and labels:
Experiment in all cases: NCI tumour cell line growth inhibition, 48 h
A498 renal = test system: A498 renal
MALME-3M melanoma = test system: MALME-3M melanoma
DU-145 prostate = test system: DU-145 prostate
HOP-92 NSCLC = test system: HOP-92 NSCLC
NCI-H522 lung = test system: NCI-H522 lung
DLD-1 colon = test system: DLD-1 colon
P388/ADR leukemia = test system: P388/ADR leukemia
KM20L2 colon = test system: KM20L2 colon
P388 leukemia = test system: P388 leukemia
SNB-78 CNS = test system: SNB-78 CNS
SN12K1 renal = test system: SN12K1 renal
HOP-18 NSCLC = test system: HOP-18 NSCLC
M19-MEL melanoma = test system: M19-MEL melanoma
DMS 273 small cell lung = test system: DMS 273 small cell lung
LXFL 529 NSCLC = test system: LXFL 529 NSCLC
XF 498 CNS = test system: XF 498 CNS
DMS 114 small cell lung = test system: DMS 114 small cell lung

| SMILES | TGI (A498 renal) [µM] | TGI (MALME-3M melanoma) [µM] | TGI (DU-145 prostate) [µM] | TGI (HOP-92 NSCLC) [µM] | TGI (NCI-H522 lung) [µM] | also measured |
| --- | --- | --- | --- | --- | --- | --- |
| N=C(N)C(N=Nc1ccccc1)C(N)=O (configuration not stated) | > 100 | > 100 | > 100 | > 100 | > 100 |  |
| CCCCNc1c(CN)cnc2cc(Cl)ccc12 | 28.7 | 34 | 86.8 | 35.1 | 34.5 |  |
| CN(C)CCCNc1ncnc2nc[nH]c12 | > 100 | > 100 | > 100 | > 100 | > 100 |  |
| O=c1[nH]/c(=C/c2ccc(OCc3ccccc3)cn2)c(=O)[nH]/c1=C/c1ccc(Cl)cc1 | 7.53 | > 100 | > 100 | > 100 | > 84.9 |  |
| NC(=O)NO | 1990 | 2480 | > 2500 | 2330 | 2270 | TGI (DLD-1 colon): > 2500 µM; TGI (P388/ADR leukemia): 502 µM; TGI (KM20L2 colon): 1700 µM; TGI (P388 leukemia): 548 µM; TGI (SNB-78 CNS): > 2500 µM; TGI (SN12K1 renal): 1890 µM; GI50 (HOP-18 NSCLC): 1130 µM; TGI (HOP-18 NSCLC): 1940 µM; TGI (M19-MEL melanoma): > 2450 µM; TGI (DMS 273 small cell lung): 1360 µM; TGI (LXFL 529 NSCLC): > 2320 µM; TGI (XF 498 CNS): 1850 µM |
| O=C(N/N=C/c1ccc([N+](=O)[O-])cc1)c1cccc2nc3ccccc3nc12 | > 100 | > 100 | > 100 | > 87.3 | > 100 |  |
| Cc1ccc2cc3c(ccc4ccccc43)c3c2c1CC3 | > 100 | > 100 | > 100 | > 100 | > 100 | GI50 (A498 renal): > 100 µM; GI50 (MALME-3M melanoma): > 100 µM |
| CC(=O)Oc1ccc2c(C)cc(=O)oc2c1 | > 100 | > 100 | > 100 | > 100 | > 100 |  |
| COc1cc2nc(-c3cccs3)nc(N3C(c4ccc(O)cc4)=NNC(=O)c4ccccc43)c2cc1OC | > 100 | 43.9 | > 100 |  | > 100 |  |
| Nc1ccc(C2NC(=O)Cc3c2ccc2ccccc32)cc1 (configuration not stated) | > 100 | > 100 | > 100 | > 100 | > 100 |  |
| COc1ccc(C2C(=O)C(Cl)N2Nc2nc(C)cc(=O)[nH]2)cc1OC (configuration not stated) |  |  |  | 81.7 |  | TGI (KM20L2 colon): > 100 µM; TGI (SNB-78 CNS): > 100 µM; TGI (HOP-18 NSCLC): 53.7 µM; TGI (M19-MEL melanoma): > 100 µM; TGI (DMS 273 small cell lung): 84.3 µM; TGI (LXFL 529 NSCLC): > 100 µM |
| O=C(O)CSCC(=O)O | > 100 | > 100 | > 100 | > 100 | > 100 |  |
| CCOC(=O)c1sc2nc(SC)nc3c2c1NCN3c1ccc2c(c1)OCCCO2 | 45.8 | > 100 | > 100 | > 100 | > 100 |  |
| O=C(O)C(O)Cc1ccccn1 (configuration not stated) | > 100 | > 100 | > 100 | > 100 | > 100 |  |
| C(=C\c1nccs1)/c1cccc(/C=C/c2nccs2)n1 | > 50 | > 50 | > 50 | > 50 | > 50 |  |
| CC(=O)OC1COC(n2nc(/C=C/c3ccc(Cl)cc3)c(=O)n(/N=C/c3ccccc3)c2=S)C(OC(C)=O)C1OC(C)=O (configuration not stated) | > 100 | > 100 | > 100 | > 100 | > 100 |  |
| FC(F)(F)C(C1=NC(C(F)(F)F)(C(F)(F)F)N=C(N2CCOCC2)O1)C(F)(F)F |  |  | > 100 | > 100 | 46.2 |  |
| COc1ccc2oc(=O)cc(C)c2c1 | > 100 | > 100 | > 100 | > 100 | > 100 |  |
| Cc1nc(Nc2ccc(F)cc2)c2sc(=S)n(-c3ccc(F)cc3)c2n1 | 33.4 | 28.8 | 26.2 |  | 30.1 |  |
| COc1ccc(C2C3CCc4ccccc4C3=NN2S(=O)(=O)c2ccc(Cl)cc2)cc1 (configuration not stated) |  | > 100 | > 100 | > 100 | 37.6 |  |
| C=CCOC1OC(CS(=O)(=O)O)C(O)C(O)C1O (configuration not stated) | > 100 | > 100 | > 100 | > 100 |  |  |
| COc1cccc(Nc2nc(-c3cccs3)nc3ccc(Br)cc23)c1 | > 100 | > 100 | > 100 | > 100 | > 100 |  |
| O=C(c1ccccc1)[C@H]1Nc2ccc(Cl)cc2[C@H]2OCCC[C@@H]12 |  | 48.1 |  |  | 36.8 | TGI (KM20L2 colon): 39.4 µM; TGI (SNB-78 CNS): 72.1 µM; TGI (HOP-18 NSCLC): 55.7 µM; TGI (DMS 114 small cell lung): 37.1 µM; TGI (M19-MEL melanoma): 49.1 µM; TGI (DMS 273 small cell lung): 39 µM; TGI (LXFL 529 NSCLC): 33.5 µM; TGI (XF 498 CNS): 33.6 µM |
| COc1ccccc1N1C(Cl)C(=O)C1c1c[nH]c2ccccc12 (configuration not stated) |  |  |  | > 100 | > 100 | TGI (KM20L2 colon): > 100 µM; TGI (DMS 114 small cell lung): > 100 µM; TGI (M19-MEL melanoma): > 100 µM; TGI (LXFL 529 NSCLC): > 100 µM; TGI (XF 498 CNS): > 100 µM |
